Assay results as given in patent publication US20030087942A1, “Method for the treatment and prevention of cachexia” (Washington University, priority 2001, published 2003).

Key:
[1] = mouse, in vivo, 10 mg/kg
Experimental: (§1) Animal housing. […] For pharmacological inhibitor studies, male C3H/HeN mice (Harlan Sprague Dawley, Inc., Indianapolis, Ind.) 10-12 wks of age were evaluated according to the method of Gross et al., Am J Physiol 278: R1415-23, 2000. See also Silver et al., J Clin Invest 95: 725-31, 1995. […] Control mice designated “WT” for the COX KO experiments were WT and heterozygous littermates arising from the COX-2 heterozygous matings. All mouse protocols were in accordance with NIH guidelines and approved by the Animal Care and Use Committee of Washington University School of Medicine.

[2] = LPS-induced weight loss; type: in vivo, mice (C3H/HeN)
Experimental: as §1

[3] = 24 h period following LPS
Experimental: LPS-induced anorexia. C3H/HeN male mice were singly housed and acclimatized for at least 2 days to cages with grid bottoms prior to treatments. Body weight and food intake was measured daily until a stable baseline was obtained. Mice received either vehicle (phosphate buffered saline; PBS) or 100 μg of lipopolysaccharide (Escherichia coli 0111 :B4, Sigma, St. Louis, Mo.) in PBS via shallow midline, mid-abdominal, intraperitoneal injection. […] To determine the effect of COX inhibition, mice were pretreated with either vehicle (phosphate buffered saline plus 1% Tween 80), or vehicle plus agent 30 minutes prior to i.p. injection of LPS or vehicle, and re-dosed at 8 and 24 hrs after LPS. Cyclooxygenase inhibitors were administered via gavage using olive-tipped needles.

[4] = system: leptin; assay: Plasma leptin after LPS (ELISA); type: in vivo, mice (C3H/HeN); settings: after LPS (3 h and 16 h)
Excerpt: (§2) Serum corticosterone, leptin, and IL-6 measurements.

[5] = system: CRH mRNA; assay: Hypothalamic in situ mRNA hybridization, CRH; type: in vivo, mice (C3H/HeN); settings: Compound 1/LPS group; 16 h after LPS with food withdrawal
Experimental: Hypothalamic in situ mRNA hybridization. […] After 24 h immersion in 4% paraformaldehyde, hypothalami were cryoprotected in 10% sucrose in DEPC D-PBS. Samples were embedded in OCT (Sakura Finetek USA, Inc., Torrance, Calif.), cut into 10 micron sections on a cryostat, and thaw mounted onto Superfrost plus slides (Fisher Scientific, Pittsburgh, Pa.). In situ hybridization utilized α-^33P-UTP-labelled 320 base anti-sense riboprobe from the mouse CRH gene or a 511 base anti-sense riboprobe from the rat neuropeptide Y (NPY) cDNA (generously provided by Dr. Steven Sabol, NHLBI, NIH) by methods described (e.g., Muglia et al., J Neurosci 19: 2051-8, 1999). For CRH and NPY mRNA detection, the regions of the hypothalamic paraventicular and arcuate nuclei were determined by Nissl staining and light microscopy. Six sections spanning each nucleus were hybridized to CRH (paraventricular nucleus) or NPY (arcuate nucleus) probes, and the two sections of peak intensity imaged for densitometric analysis. Hybridizing probes were quantitated by exposure of slides to Hyperfilm-βMax (Amersham Life Science, Inc., Arlington Heights, Ill.) with densitometric analysis employing NIH Image Software.

[6] = system: IL-6; assay: Plasma IL-6 after LPS (ELISA); type: in vivo, mice (C3H/HeN)
Excerpt: as §2

For `COc1ccc2c(c1)c(CC(=O)O)c(C)n2C(=O)c1ccc(Cl)cc1` [indomethacin], the “change in body weight relative to vehicle-treated control mice” value [1] was “no change in body weight” and the “weight loss associated with LPS administration, vs. vehicle/LPS” value ([2]; 100 μg LPS i.p., gavage 30 min before, 8 and 24 h after LPS, indomethacin 150 μg/dose, Compound 1 300 μg/dose) was “tended to reduce the weight loss”.

In the case of `NS(=O)(=O)c1ccc(-n2nc(C(F)(F)F)cc2-c2ccc(Cl)cc2)cc1` [Compound 1], the “hypophagic response after LPS” value [3] is reported as “attenuated, but did not completely block the hypophagic response”, the “magnitude of induction of leptin, vehicle/LPS vs. Compound 1/LPS” value [4] is reported as “did not differ” and the “elevation of CRH mRNA in the paraventricular nucleus of the hypothalamus” value [5] is reported as “approximately 3 fold”. The “difference in weight loss between LPS-treated Compound 1 and Compound 2 groups” value ([2]; 2 and 3 days after LPS treatment) was “remained significant”, the “magnitude of early induction of plasma IL-6 vs. LPS alone” value ([6]; 3 h after LPS) was “no change” and the “sustained increases in plasma IL-6 vs. LPS alone” value ([6]; 16 hours after LPS) was “no change”.

In the case of `COc1ccc(-n2nc(C(F)(F)F)cc2-c2ccc(Cl)cc2)cc1` [Compound 2], the “body weight in comparison to the vehicle/LPS group” value ([2]; 3 days after treatment, 300 μg/dose (10 mg/kg) gavage plus LPS) is reported as “sustained weight reduction”.
